{"source": "paper PMC12064818", "about": "“A general assay platform to study protein pharmacology using ligand-dependent structural dynamics” (Nature Communications, 2025)", "key": {"C. elegans iPGM-C-HiBiT": {"target": "C. elegans iPGM-C-HiBiT (Caenorhabditis elegans, UniProt G5EFZ1)", "sequence (G5EFZ1 2-539)": "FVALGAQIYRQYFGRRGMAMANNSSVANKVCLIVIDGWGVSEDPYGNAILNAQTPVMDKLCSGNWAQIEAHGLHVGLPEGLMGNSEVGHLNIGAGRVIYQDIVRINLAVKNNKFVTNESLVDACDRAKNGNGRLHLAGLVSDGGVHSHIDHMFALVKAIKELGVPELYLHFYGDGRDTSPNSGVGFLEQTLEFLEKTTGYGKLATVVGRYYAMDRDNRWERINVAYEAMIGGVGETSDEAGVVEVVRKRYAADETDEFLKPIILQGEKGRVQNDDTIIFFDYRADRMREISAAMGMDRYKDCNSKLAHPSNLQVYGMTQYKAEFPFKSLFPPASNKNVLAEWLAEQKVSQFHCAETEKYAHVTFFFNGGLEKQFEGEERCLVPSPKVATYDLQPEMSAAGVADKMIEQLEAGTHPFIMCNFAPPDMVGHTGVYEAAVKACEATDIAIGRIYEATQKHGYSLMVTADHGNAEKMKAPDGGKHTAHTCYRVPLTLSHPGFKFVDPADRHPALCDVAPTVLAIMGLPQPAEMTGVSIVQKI", "experiment": "iPGM coupled-enzyme assay, C. elegans iPGM-C-HiBiT", "type": "biochemical", "parameters": "cDNA, containing Phe2-Ile539 and the 6xHis tag; His6 (C); made in house; host or cells: E. coli", "conditions": "C. elegans iPGM-C-HiBiT Std 5 nM; ligand […] Std", "method": "The enzyme activity of C. elegans or B. malayi iPGM-C-HiBiT was measured using the functional coupled-enzyme luminescence end-point output assay for iPGM as previously described[16],[41],[68]. Briefly, the indicated concentration of 4 μL of iPGM-C-HiBiT was dispensed into 1536-well white, high solid base, medium bind plates in a pH 8.0 iPGM assay buffer (30 mM Tris-HCl, 5 mM magnesium sulfate, 20 mM potassium chloride and 0.08% BSA) with the BioRaptr 2. Compounds and controls were added to each plate with a pintool as described in Supplementary Data 8. Enzymes were incubated with peptide for > 20 min at ambient temperature, protected from light. […] Enzyme was at 5 nM final concentration for the standard assay with an estimated KM 3-phosphoglycerate (3PG) substrate concentration of 400 μM. Plates were incubated at ambient temperature for 10 min, protected from light, then measured by a ViewLux plate reader. […] See Supplementary Table 6 for additional details.\nSupplementary Table 6. Protocol for Co- factor independent phosphoglycerate mutase (iPGM) coupled-enzyme assay\nSupplementary Table 6: Protocol for Co-factor independent phosphoglycerate m utase (iPGM) coupled- enzym e assay […]\nNo enzym e control (colum n 1) and enzym e solutions (5 nM Bm iPGM-C-HiBiT or Ce iPGM-1 Reagent 4 µLC-HiBiT dialyzed against Zn/Mn final assay concentration) in PGM enzym e buffer; white/solid bottom , m edium bind, high base plates (Greiner), dispensed with BioRaptr 2 […]\nin 8-pt 1:6 titration series in duplicate); com pounds transferred to respective colum ns with […]\nTest com pounds: m acrocyclic peptides at 5 m M stock concentration in 16-pt, 1:3 titration […]\ntransferred to respective colum ns with Pintool\n3 Incubation 20 m inIncubate enzym e + com pounds at am bient tem p for 20 m in, protected from light 4 Reagent 2 µLSubstrate solution; 0.4 m M final concentration 3PG in coupled-enzym e substrate buffer; dispensed with BioRaptr 2\n5 Incubation 5 m inAm bient tem perature, protected from light\n6 Reagent 4 µLKinase-Glo Plus reagent (Prom ega) prepared according to m anufacturer’s protocol;\n7 Incubation 10 m inRoom tem perature, protected from light\n8 Detector ViewLuxRead plate lum inescence (Exposure = 1 sec; Gain = Medium; Speed = Slow; Binning = 2X) […]\nin 20% glycerol); Bm iPGM-C-HiBiT enzym e 10 µM stock solution in 20% glycerol.\nCoupled-enzym e substrate solution: 30 m M Tris-HCl, pH 8.0; 5 m M MgSO4; 20 m M KCl; 9 m M ADP (3 m M final); 0.1 4 units/µl enolase (Millipore Sigm a, Cat# E6126); 0.15 units/µl pyruvate kinase (from rabbit m uscle, Millipore Sigm a, Cat #"}, "[1]": {"target": "FLuc-N-HiBiT (firefly luciferase) (Photinus pyralis, UniProt P08659, form not given/L550V)", "sequence (P08659 2-550 L550V, form open)": "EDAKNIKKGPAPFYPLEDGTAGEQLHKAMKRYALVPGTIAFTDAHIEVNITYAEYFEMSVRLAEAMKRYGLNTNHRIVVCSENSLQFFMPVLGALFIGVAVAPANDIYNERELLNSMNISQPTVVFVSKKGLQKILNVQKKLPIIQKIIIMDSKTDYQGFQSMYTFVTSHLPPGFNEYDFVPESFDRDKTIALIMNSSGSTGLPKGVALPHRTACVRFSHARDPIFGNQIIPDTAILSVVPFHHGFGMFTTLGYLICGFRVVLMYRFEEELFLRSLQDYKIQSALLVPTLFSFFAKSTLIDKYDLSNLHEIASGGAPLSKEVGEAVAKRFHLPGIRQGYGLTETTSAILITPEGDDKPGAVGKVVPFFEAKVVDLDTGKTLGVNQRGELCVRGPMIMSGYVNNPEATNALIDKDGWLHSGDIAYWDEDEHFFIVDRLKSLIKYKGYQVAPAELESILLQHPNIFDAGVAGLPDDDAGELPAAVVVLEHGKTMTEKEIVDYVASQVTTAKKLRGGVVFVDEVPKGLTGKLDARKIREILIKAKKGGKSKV", "experiment": "Firefly luciferase (FLuc) enzymatic luminescence assay, FLuc-N-HiBiT", "type": "biochemical", "conditions": "for Functional Enzymatic Assay: 10 nM FLuc-N-HiBiT, replicates; for Functional Enzymatic Assay / 10 nM FLuc-N-HiBiT Enz, Mean: Log [PTC124]", "method": "The enzyme activity of FLuc-N-HiBiT, FLuc-C-HiBiT, and FLuc-C-NLuc was measured similar to P. pyralis firefly luciferase (FLuc) as previously described. […] Compounds and controls were added to each plate as described in Supplementary Data 8 with a Hornet pintool system (Wako Automation). Compounds were incubated with respective enzymes for 30–60 min at room temperature protected from light and covered by solid metal lid to prevent evaporation. […] Luciferin was incubated with FLuc enzyme for 5 min before FLuc activity was then measured on a ViewLux CCD imager (PerkinElmer), with exposure times up to ten seconds with medium to high gain settings. Data were normalized to average no enzyme control as 100% enzyme inhibition and average DMSO neutral control. See Supplementary Table 4 for additional details.\nSupplementary Table 4. Protocol for Firefly luciferase (FLuc) and NanoLuc (NLuc) enzymatic\nSupplementary Table 4: Protocol for Firefly luciferase (FLuc) and NanoLuc (NLuc) enzym atic lum inescence assay\nFirefly luciferase (FLuc) enzym atic lum inescence assay\nSequence Param eter Value Description\nNo enzym e control (colum n 1) and enzym e solution (1- 10 nM FLuc enzym e) in FLuc assay\n1 Reagent 4 µLbuffer; white/solid bottom , m edium bind, high base plates (Greiner), dispensed with BioRaptr\ncom pounds transferred to respective colum ns with Pintool\n2b Test Com pounds 23 nLconcentration range) in colum ns 5- 48; com pounds transferred to respective wells with\n3 Incubation 30 m in Incubate enzym e + com pounds at am bient tem p for 30 m in, protected from light\n4 Reagent 3 µLAdd 3 µL of D-luciferin substrate solution to each well (final concentration 10 µM); dispensed\n5 Detector ViewLux Read plate lum inescence (Exposure = 1- 10 sec; Gain = Medium -high; Speed = Slow;\nDispensing solution was diluted in 1X PBS, pH 7.4. […]"}}, "note": "Several values for one entry are separate records, joined by “and”; a condition that tells them apart may be missing. Equal entries are not always repeated.", "data": [{"compound": "CC(C)C[C@H](NC(=O)[C@H](Cc1ccc(O)cc1)NC(=O)[C@@H]1CSCC(=O)N[C@H](Cc2ccc(O)cc2)C(=O)N[C@@H](CC(=O)O)C(=O)N[C@@H](Cc2ccc(O)cc2)C(=O)N2CCC[C@H]2C(=O)NCC(=O)N[C@@H](CC(=O)O)C(=O)N[C@@H](Cc2ccc(O)cc2)C(=O)N1)C(=O)N[C@@H](Cc1ccc(O)cc1)C(=O)NCC(=O)N[C@H](C(=O)N[C@@H](CS)C(=O)NCC(N)=O)[C@@H](C)O", "note": "[Ce-2]", "values": [{"measurement": "Standard assay statistics Ave RLU", "setting": "C. elegans iPGM-C-HiBiT", "result": 3361.1, "unit": "RLU"}, {"measurement": "Standard assay statistics S:B", "setting": "C. elegans iPGM-C-HiBiT", "result": 8.4}, {"measurement": "Standard assay statistics S:N", "setting": "C. elegans iPGM-C-HiBiT", "result": -16.5}, {"measurement": "Standard assay statistics Z’", "setting": "C. elegans iPGM-C-HiBiT", "result": 0.816}]}, {"compound": "O=C(O)c1cccc(-c2noc(-c3ccccc3F)n2)c1", "note": "[PTC124, reference compound]", "values": [{"measurement": "Functional Enzymatic Assay", "setting": "[1]; M -4.48", "result": "7.2 RLU and 7.9 RLU (2×) and 7.3 RLU and 6.7 RLU and 7.1 RLU"}, {"measurement": "Functional Enzymatic Assay", "setting": "[1]; M -4.96", "result": "8.6 RLU and 8.1 RLU and 7.7 RLU and 8.3 RLU and 7.1 RLU and 7.2 RLU"}, {"measurement": "Functional Enzymatic Assay", "setting": "[1]; M -5.44", "result": "8.3 RLU (2×) and 8.6 RLU and 8.4 RLU and 7.5 RLU (2×)"}, {"measurement": "Functional Enzymatic Assay", "setting": "[1]; M -5.91", "result": "8.7 RLU (2×) and 9.2 RLU and 8.9 RLU and 8.3 RLU and 8.5 RLU"}, {"measurement": "Functional Enzymatic Assay", "setting": "[1]; M -6.39", "result": "10.6 RLU and 10.5 RLU and 10.2 RLU (2×) and 10.1 RLU and 9.7 RLU"}, {"measurement": "Functional Enzymatic Assay", "setting": "[1]; M -6.87", "result": "14.3 RLU (2×) and 14.5 RLU and 14.7 RLU and 15.0 RLU and 14.8 RLU"}, {"measurement": "Functional Enzymatic Assay", "setting": "[1]; M -7.35", "result": "29.6 RLU and 29.7 RLU and 30.2 RLU and 33.4 RLU and 41.4 RLU and 37.0 RLU"}, {"measurement": "Functional Enzymatic Assay", "setting": "[1]; M -7.82", "result": "144.5 RLU and 149.3 RLU and 178.2 RLU and 166.0 RLU and 190.3 RLU and 174.6 RLU"}, {"measurement": "Functional Enzymatic Assay", "setting": "[1]; M -8.30", "result": "301.7 RLU and 309.5 RLU and 327.2 RLU and 328.1 RLU and 308.7 RLU and 316.4 RLU"}, {"measurement": "Functional Enzymatic Assay", "setting": "[1]; M -8.78", "result": "370.7 RLU and 364.6 RLU and 370.3 RLU and 363.9 RLU and 364.3 RLU and 365.0 RLU"}, {"measurement": "Functional Enzymatic Assay", "setting": "[1]; M -9.25", "result": "391.9 RLU and 389.1 RLU and 396.6 RLU and 382.9 RLU and 381.5 RLU and 379.2 RLU"}, {"measurement": "Functional Enzymatic Assay", "setting": "[1]; M -9.73", "result": "393.8 RLU and 390.8 RLU and 393.2 RLU and 390.0 RLU and 387.4 RLU and 383.0 RLU"}, {"measurement": "Functional Enzymatic Assay", "setting": "[1]; M -10.21", "result": "400.1 RLU and 398.5 RLU and 399.0 RLU and 394.9 RLU and 391.0 RLU and 381.4 RLU"}, {"measurement": "Functional Enzymatic Assay", "setting": "[1]; M -10.69", "result": "399.5 RLU and 393.3 RLU and 400.5 RLU and 393.7 RLU and 383.2 RLU and 377.0 RLU"}, {"measurement": "Functional Enzymatic Assay", "setting": "[1]; M -11.16", "result": "392.3 RLU and 386.5 RLU and 400.5 RLU and 393.0 RLU and 385.0 RLU and 368.5 RLU"}, {"measurement": "Functional Enzymatic Assay", "setting": "[1]; M -11.64", "result": "389.5 RLU and 376.4 RLU and 395.8 RLU and 380.1 RLU and 381.7 RLU and 371.3 RLU"}, {"measurement": "pIC50, FLuc-N-HiBiT (10 nM)", "setting": "[1]; 10 μM ATP", "result": "7.68 ± 0.02"}, {"measurement": "10 nM FLuc-N-HiBiT Enz, Mean", "setting": "[1]; M (Enz) -4.24", "result": 7.3, "unit": "RLU"}, {"measurement": "10 nM FLuc-N-HiBiT Enz, Mean", "setting": "[1]; M (Enz) -4.72", "result": 7.8, "unit": "RLU"}, {"measurement": "10 nM FLuc-N-HiBiT Enz, Mean", "setting": "[1]; M (Enz) -5.19", "result": 8.1, "unit": "RLU"}, {"measurement": "10 nM FLuc-N-HiBiT Enz, Mean", "setting": "[1]; M (Enz) -5.67", "result": 8.7, "unit": "RLU"}, {"measurement": "10 nM FLuc-N-HiBiT Enz, Mean", "setting": "[1]; M (Enz) -6.15", "result": 10.2, "unit": "RLU"}, {"measurement": "10 nM FLuc-N-HiBiT Enz, Mean", "setting": "[1]; M (Enz) -6.63", "result": 14.6, "unit": "RLU"}, {"measurement": "10 nM FLuc-N-HiBiT Enz, Mean", "setting": "[1]; M (Enz) -7.10", "result": 33.5, "unit": "RLU"}, {"measurement": "10 nM FLuc-N-HiBiT Enz, Mean", "setting": "[1]; M (Enz) -7.58", "result": 167.1, "unit": "RLU"}, {"measurement": "10 nM FLuc-N-HiBiT Enz, Mean", "setting": "[1]; M (Enz) -8.06", "result": 315.3, "unit": "RLU"}, {"measurement": "10 nM FLuc-N-HiBiT Enz, Mean", "setting": "[1]; M (Enz) -8.53", "result": 366.5, "unit": "RLU"}, {"measurement": "10 nM FLuc-N-HiBiT Enz, Mean", "setting": "[1]; M (Enz) -9.01", "result": 386.9, "unit": "RLU"}, {"measurement": "10 nM FLuc-N-HiBiT Enz, Mean", "setting": "[1]; M (Enz) -9.49", "result": 389.7, "unit": "RLU"}, {"measurement": "10 nM FLuc-N-HiBiT Enz, Mean", "setting": "[1]; M (Enz) -9.97", "result": 394.1, "unit": "RLU"}, {"measurement": "10 nM FLuc-N-HiBiT Enz, Mean", "setting": "[1]; M (Enz) -10.44", "result": 391.2, "unit": "RLU"}, {"measurement": "10 nM FLuc-N-HiBiT Enz, Mean", "setting": "[1]; M (Enz) -10.92", "result": 387.6, "unit": "RLU"}, {"measurement": "10 nM FLuc-N-HiBiT Enz, Mean", "setting": "[1]; M (Enz) -11.40", "result": 382.5, "unit": "RLU"}]}]}
